Test results published in US6914045B2, “Glycopeptide antibiotics” (Wyeth Holdings Corporation, priority 2001, dated 2005).
≈ marks a conversion by molar mass, not a printed value. Where “and” joins values, the source holds several entries; their conditions need not be identical. Equal entries are not always repeated.

Key:
Staphylococcus aureus = test: zone of inhibition, agar well assay plate; assay type: cell-based; conditions: 25 μl of extract per 5 mm well, incubated overnight at 37° C.
Protocol: Protocol for Assay Plate Staphylococcus aureus
Inoculate 10 mL of Tryptic Soy Broth with a loopful of slant culture, Staphylococcus aureus, and place in a stationary rack at 37° C. After 16-18 hour incubation, the Optical Density (OD) of the culture is read@A600 nm, using a 1:10 dilution. OD should be between 0.1-0.3, and if not adjust with Tryptic Soy Broth. A 40 mL sample of Nutrient Agar, pH 6.8 is inoculated with 90 ul of S. aureus culture and poured into a sterile petri dish. When the agar has solidified, wells (5 mm) are plated using an automated welling device. Wells are inoculated with 25 μl of extract and incubated overnight at 37° C. Zones of inhibition are measured and recorded the following morning.

Escherichia coli = test: in vitro antibacterial evaluation, MIC by broth dilution; assay type: cell-based; conditions: 18 hours at 35° C.
How it was run: (§1)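 Broth dilution per NCCLS standard M7-A2 in Muller-Hinton II […], with an inoculum of 5×10^5 CFU/mL and antibiotic spanning 64-0.06 μg/mL. The MIC is the lowest concentration that inhibits growth of the organism.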

Streptococcus sp. = test: as above; assay type: cell-based; conditions: broth dilution, 18 hours at 35° C.
How it was run: as §1

Staphylococcus sp. = test: as above; assay type: cell-based; conditions: broth dilution, 18 hours at 35° C.
How it was run: as §1

Enterococcus sp. = test: as above; assay type: cell-based; conditions: broth dilution, 18 hours at 35° C.
How it was run: as §1

[1] = test system: Enterococcus faecalis (GC 6189); test: acute lethal infection in mice; assay type: in vivo; conditions: female CD-1 mice, intraperitoneal challenge, intravenous 30 min. after infection, 7 day survival
How it was run: (§2)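 ED50 from 7 day survival ratios pooled over 3 separate tests. Female CD-1 mice, 20+/−2 gm, ip bacterial challenge (trypticase soy broth or hog gastric mucin) lethal to untreated controls in 24-48 hr; iv dosing 30 min after infection in saline or 5% dextrose, n=5/dose.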

[2] = test system: Staphylococcus aureus-SMITH (GC 4543); test: acute lethal infection in mice; assay type: in vivo; conditions: acute lethal infection, female CD-1 mice, intraperitoneal challenge, intravenous 30 min. after infection, 7 day survival
How it was run: as §2

CCC(C)CC(=O)OC1C(CO)OC(OC2C(CO)OC(Oc3ccc(CC4NC(=O)C(C(C)c5ccccc5)NC(=O)CNC(=O)C(CO)NC(=O)C(C(O)C5CNC(=N)N5C5OC(CO)C(O)C(O)C5O)NC(=O)C(C(O)C5CNC(=N)N5)NC4=O)cc3)C(O)C2O)C(O)C1O (stereo not drawn) [Example 271c, Cyclo[glycyl-β-methylphenylalanyl-O-[4-O-[4-O-(3-methylpentanoyl)hexopyranosyl]-hexopyranosyl]tyrosyl-3-(2-iminoimidazolidin-4 yl)seryl-3-(3-hexopyranosyl-2-iminoimidazolidin-4-yl)serylseryl]]
Zone of Inhibition vs. S. aureus (Staphylococcus aureus): 12 mm

CCCCCC(=O)OC1C(O)C(CO)OC(OC2C(CO)OC(Oc3ccc(CC4NC(=O)C(C(C)c5ccccc5)NC(=O)CNC(=O)C(CO)NC(=O)C(C(O)C5CNC(=N)N5C5OC(CO)C(O)C(O)C5O)NC(=O)C(C(O)C5CNC(=N)N5)NC4=O)cc3)C(O)C2O)C1O (stereo not drawn) [Example 273b, Cyclo[glycyl-β-methylphenylalanyl-O-[4-O-(3-O-hexanoyl-hexopyranosyl)-hexopyranosyl]tyrosyl-3-(2-iminoimidazolidin-4-yl)seryl-3-(3-hexopyranosyl-2-iminoimidazolidin-4-yl)serylseryl]]
Zone of Inhibition vs. S. aureus (Staphylococcus aureus): 9 mm and 8 mm

CCCCCCC(=O)OC1C(O)C(CO)OC(OC2C(CO)OC(Oc3ccc(CC4NC(=O)C(C(C)c5ccccc5)NC(=O)CNC(=O)C(CO)NC(=O)C(C(O)C5CNC(=N)N5C5OC(CO)C(O)C(O)C5O)NC(=O)C(C(O)C5CNC(=N)N5)NC4=O)cc3)C(O)C2O)C1O (stereo not drawn) [Example 274b, Cyclo[glycyl-β-methylphenylalanyl-O-[4-O-(3-O-heptanoyl-hexopyranosyl)-hexopyranosyl]tyrosyl-3-(2-iminoimidazolidin-4-yl)seryl-3-(3-hexopyranosyl-2-iminoimidazolidin-4-yl)serylseryl]]
Zone of Inhibition vs. S. aureus (Staphylococcus aureus): 10 mm

CC(C)CCC(=O)OC1C(CO)OC(OC2C(CO)OC(Oc3ccc(CC4NC(=O)C(C(C)c5ccccc5)NC(=O)CNC(=O)C(CO)NC(=O)C(C(O)C5CNC(=N)N5C5OC(CO)C(O)C(O)C5O)NC(=O)C(C(O)C5CNC(=N)N5)NC4=O)cc3)C(O)C2O)C(O)C1O (stereo not drawn) [Example 270c, Cyclo[glycyl-β-methylphenylalanyl-O-[4-O-[4-O-(4-methylpentanoyl)hexopyranosyl]-hexopyranosyl]tyrosyl-3-(2-iminoimidazolidin-4-yl)seryl-3-(3-hexopyranosyl-2-iminoimidazolidin-4-yl)serylseryl]]
Zone of Inhibition vs. S. aureus (Staphylococcus aureus): 11 mm

Cc1ccc(CC2OCC3OC(OC4C(CO)OC(Oc5ccc(CC6NC(=O)C(C(C)c7ccccc7)NC(=O)CNC(=O)C(CO)NC(=O)C(C(O)C7CNC(=N)N7C7OC(CO)C(O)C(O)C7O)NC(=O)C(C(O)C7CNC(=N)N7)NC6=O)cc5)C(O)C4O)C(O)C(O)C3O2)cc1 (stereo not drawn) [Example 119, Cyclo[glycyl-β-methylphenylalanyl-O-[4-O-[4,6-O-(4-methylphenethylidene)hexopyranosyl]-hexopyranosyl]tyrosyl-3-(2-iminoimidazolidin-4-yl)seryl-3-(3-hexopyranosyl-2-iminoimidazolidin-4-yl)serylseryl]]
MIC Escherichia coli (ATCC 25922) (Escherichia coli; strain ATCC 25922): 32 µg/mL (≈ 22.7 µM)
MIC Escherichia coli (GC 4559) (Escherichia coli; strain GC 4559): 32 µg/mL (≈ 22.7 µM)
MIC Escherichia coli (GC 4560) (Escherichia coli; strain GC 4560): 1 µg/mL (≈ 0.708 µM)
MIC Streptococcus agalactiae (GC 4564) (Streptococcus sp.; Streptococcus agalactiae (GC 4564)): <0.5 µg/mL
MIC Streptococcus pneumoniae (ATCC 6301) (Streptococcus sp.; Streptococcus pneumoniae (ATCC 6301)): <0.5 µg/mL
MIC Streptococcus pneumoniae (GC 1894) (Streptococcus sp.; Streptococcus pneumoniae (GC 1894)): <0.5 µg/mL
MIC Streptococcus pneumoniae (GC 4565) (Streptococcus sp.; Streptococcus pneumoniae (GC 4565)): 1 µg/mL (≈ 0.708 µM)
MIC Streptococcus pyogenes (GC 4563) (Streptococcus sp.; Streptococcus pyogenes (GC 4563)): <0.5 µg/mL
MIC Streptococcus pneumoniae (ATCC 6301) (Streptococcus sp.; strain ATCC 6301): <0.5 µg/mL
MIC Streptococcus pneumoniae (GC 1894) (Streptococcus sp.; strain GC 1894): <0.5 µg/mL
MIC Streptococcus pyogenes (GC 4563) (Streptococcus sp.; strain GC 4563): <0.5 µg/mL
MIC Streptococcus agalactiae (GC 4564) (Streptococcus sp.; strain GC 4564): <0.5 µg/mL
MIC Streptococcus pneumoniae (GC 4565) (Streptococcus sp.; strain GC 4565): 1 µg/mL (≈ 0.708 µM)
MIC Coagulase Negative Staphylococcus (GC 4547) (Staphylococcus sp.): 1 µg/mL (≈ 0.708 µM)
MIC Coagulase Negative Staphylococcus (GC 4548) (Staphylococcus sp.): 1 µg/mL (≈ 0.708 µM)
MIC Coagulase Negative Staphylococcus (GC 4549) (Staphylococcus sp.): 1 µg/mL (≈ 0.708 µM)
MIC Coagulase Negative Staphylococcus (GC 4551) (Staphylococcus sp.): 1 µg/mL (≈ 0.708 µM)
MIC Coagulase Negative Staphylococcus (GC 6257) (Staphylococcus sp.): <0.5 µg/mL
MIC Staphylococcus aureus (ATCC 29213) (Staphylococcus sp.): 1 µg/mL (≈ 0.708 µM)
MIC Staphylococcus aureus (GC 1131) (Staphylococcus sp.): 1 µg/mL (≈ 0.708 µM)
MIC Staphylococcus aureus (GC 3051) (Staphylococcus sp.): 1 µg/mL (≈ 0.708 µM)
MIC Staphylococcus aureus (GC 3053) (Staphylococcus sp.): 2 µg/mL (≈ 1.42 µM)
MIC Staphylococcus aureus (GC 4541) (Staphylococcus sp.): 1 µg/mL (≈ 0.708 µM)
MIC Staphylococcus aureus (GC 4542) (Staphylococcus sp.): 1 µg/mL (≈ 0.708 µM)
MIC Staphylococcus aureus (GC 4544) (Staphylococcus sp.): 1 µg/mL (≈ 0.708 µM)
MIC Staphylococcus aureus (GC 4545) (Staphylococcus sp.): 1 µg/mL (≈ 0.708 µM)
MIC Staphylococcus aureus-SMITH (GC 4543) (Staphylococcus sp.): 1 µg/mL (≈ 0.708 µM)
MIC Staphylococcus haemolyticus (GC 4546) (Staphylococcus sp.): 1 µg/mL (≈ 0.708 µM)
MIC Staphylococcus aureus (GC 1131) (Staphylococcus sp.; inoculum 5×10^5 CFU/mL, strain GC 1131): 1 µg/mL (≈ 0.708 µM)
MIC Staphylococcus aureus (ATCC 29213) (Staphylococcus sp.; strain ATCC 29213): 1 µg/mL (≈ 0.708 µM)
MIC Staphylococcus aureus (GC 3051) (Staphylococcus sp.; strain GC 3051): 1 µg/mL (≈ 0.708 µM)
MIC Staphylococcus aureus (GC 3053) (Staphylococcus sp.; strain GC 3053): 2 µg/mL (≈ 1.42 µM)
MIC Staphylococcus aureus (GC 4541) (Staphylococcus sp.; strain GC 4541): 1 µg/mL (≈ 0.708 µM)
MIC Staphylococcus aureus (GC 4542) (Staphylococcus sp.; strain GC 4542): 1 µg/mL (≈ 0.708 µM)
MIC Staphylococcus aureus (GC 4544) (Staphylococcus sp.; strain GC 4544): 1 µg/mL (≈ 0.708 µM)
MIC Staphylococcus aureus (GC 4545) (Staphylococcus sp.; strain GC 4545): 1 µg/mL (≈ 0.708 µM)
MIC Staphylococcus haemolyticus (GC 4546) (Staphylococcus sp.; strain GC 4546): 1 µg/mL (≈ 0.708 µM)
MIC Coagulase Negative Staphylococcus (GC 4547) (Staphylococcus sp.; strain GC 4547): 1 µg/mL (≈ 0.708 µM)
MIC Coagulase Negative Staphylococcus (GC 4548) (Staphylococcus sp.; strain GC 4548): 1 µg/mL (≈ 0.708 µM)
MIC Coagulase Negative Staphylococcus (GC 4549) (Staphylococcus sp.; strain GC 4549): 1 µg/mL (≈ 0.708 µM)
MIC Coagulase Negative Staphylococcus (GC 4551) (Staphylococcus sp.; strain GC 4551): 1 µg/mL (≈ 0.708 µM)
MIC Coagulase Negative Staphylococcus (GC 6257) (Staphylococcus sp.; strain GC 6257): <0.5 µg/mL
MIC Staphylococcus aureus-SMITH (GC 4543) (Staphylococcus sp.; strain SMITH GC 4543): 1 µg/mL (≈ 0.708 µM)
MIC Enterococcus avium (GC 4558) (Enterococcus sp.; Enterococcus avium (GC 4558)): 4 µg/mL (≈ 2.83 µM)
MIC Enterococcus faecalis (ATCC 29212) (Enterococcus sp.; Enterococcus faecalis (ATCC 29212)): 2 µg/mL (≈ 1.42 µM)
MIC Enterococcus faecalis (GC 2242) (Enterococcus sp.; Enterococcus faecalis (GC 2242)): 2 µg/mL (≈ 1.42 µM)
MIC Enterococcus faecalis (GC 2691) (Enterococcus sp.; Enterococcus faecalis (GC 2691)): 2 µg/mL (≈ 1.42 µM)
MIC Enterococcus faecalis (GC 3059) (Enterococcus sp.; Enterococcus faecalis (GC 3059)): >64 µg/mL
MIC Enterococcus faecalis (GC 4552) (Enterococcus sp.; Enterococcus faecalis (GC 4552)): 2 µg/mL (≈ 1.42 µM)
MIC Enterococcus faecalis (GC 4553) (Enterococcus sp.; Enterococcus faecalis (GC 4553)): 4 µg/mL (≈ 2.83 µM)
MIC Enterococcus faecalis (GC 4554) (Enterococcus sp.; Enterococcus faecalis (GC 4554)): 2 µg/mL (≈ 1.42 µM)
MIC Enterococcus faecalis (GC 6189) (Enterococcus sp.; Enterococcus faecalis (GC 6189)): 2 µg/mL (≈ 1.42 µM)
MIC Enterococcus faecium (GC 2243) (Enterococcus sp.; Enterococcus faecium (GC 2243)): 4 µg/mL (≈ 2.83 µM)
MIC Enterococcus faecium (GC 4556) (Enterococcus sp.; Enterococcus faecium (GC 4556)): 2 µg/mL (≈ 1.42 µM)
MIC Enterococcus faecium (GC 4557) (Enterococcus sp.; Enterococcus faecium (GC 4557)): 1 µg/mL (≈ 0.708 µM)
MIC Enterococcus faecalis (ATCC 29212) (Enterococcus sp.; strain ATCC 29212): 2 µg/mL (≈ 1.42 µM)
MIC Enterococcus faecalis (GC 2242) (Enterococcus sp.; strain GC 2242): 2 µg/mL (≈ 1.42 µM)
MIC Enterococcus faecium (GC 2243) (Enterococcus sp.; strain GC 2243): 4 µg/mL (≈ 2.83 µM)
MIC Enterococcus faecalis (GC 2691) (Enterococcus sp.; strain GC 2691): 2 µg/mL (≈ 1.42 µM)
MIC Enterococcus faecalis (GC 3059) (Enterococcus sp.; strain GC 3059): >64 µg/mL
MIC Enterococcus faecalis (GC 4552) (Enterococcus sp.; strain GC 4552): 2 µg/mL (≈ 1.42 µM)
MIC Enterococcus faecalis (GC 4553) (Enterococcus sp.; strain GC 4553): 4 µg/mL (≈ 2.83 µM)
MIC Enterococcus faecalis (GC 4554) (Enterococcus sp.; strain GC 4554): 2 µg/mL (≈ 1.42 µM)
MIC Enterococcus faecium (GC 4556) (Enterococcus sp.; strain GC 4556): 2 µg/mL (≈ 1.42 µM)
MIC Enterococcus faecium (GC 4557) (Enterococcus sp.; strain GC 4557): 1 µg/mL (≈ 0.708 µM)
MIC Enterococcus avium (GC 4558) (Enterococcus sp.; strain GC 4558): 4 µg/mL (≈ 2.83 µM)
MIC Enterococcus faecalis (GC 6189) (Enterococcus sp.; strain GC 6189): 2 µg/mL (≈ 1.42 µM)
median effective dose (ED50), Enterococcus faecalis (GC 6189) [1]: 0.41 mg/kg
median effective dose (ED50), Staphylococcus aureus-SMITH (GC 4543) [2]: 0.19 mg/kg
